From PMC5234074 (2017)

What was measured:
[1] = tested on: EC-108 (thiC 1-108 nascent transcript) (RNA, riboswitch) UAAUUUCUUGUCGGAGUGCCUUAACUGGCUGAGACCGUUUAUUCGGGAUCCGCGGAACCUGAUCAGGCUAAUACCUGCGAAGGGAACAAGAGUUAAUCUGCUAUCGCA; test: RNase H cleavage of stalled elongation complex, P1 probe; conditions: 20 mM MgCl2, 20 mM NaCl (transcription); 20 mM MgCl2, 100 mM KCl (RNase H step); Tris-HCl pH 8.0, 37 °C; 10 μM TPP; cleavage ratio 6.7; RNAP bound
[2] = tested on: EC-207 (thiC 1-207 nascent transcript) (RNA, riboswitch) UAAUUUCUUGUCGGAGUGCCUUAACUGGCUGAGACCGUUUAUUCGGGAUCCGCGGAACCUGAUCAGGCUAAUACCUGCGAAGGGAACAAGAGUUAAUCUGCUAUCGCAUCGCCCCUGCGGCGAUCGUCUCUUGCUUCAUCCGUCGUCUGACAAGCCACGUCCUUAACUUUUUGGAAUGAGCUAUGUCUGCAACAAAACUGACCCGCC; test: as above; conditions: 20 mM MgCl2, 20 mM NaCl (transcription); 20 mM MgCl2, 100 mM KCl (RNase H step); Tris-HCl pH 8.0, 37 °C; 10 μM TPP; RNAP bound; sensing partially recovered
[3] = tested on: EC-197 (thiC 1-197 nascent transcript) (RNA, riboswitch) UAAUUUCUUGUCGGAGUGCCUUAACUGGCUGAGACCGUUUAUUCGGGAUCCGCGGAACCUGAUCAGGCUAAUACCUGCGAAGGGAACAAGAGUUAAUCUGCUAUCGCAUCGCCCCUGCGGCGAUCGUCUCUUGCUUCAUCCGUCGUCUGACAAGCCACGUCCUUAACUUUUUGGAAUGAGCUAUGUCUGCAACAAAA; test: as above; conditions: 20 mM MgCl2, 20 mM NaCl (transcription); 20 mM MgCl2, 100 mM KCl (RNase H step); Tris-HCl pH 8.0, 37 °C; 10 μM TPP; RNAP bound; sensing partially recovered
[4] = tested on: 143 nt thiC transcript (without RNAP) (RNA, riboswitch) UAAUUUCUUGUCGGAGUGCCUUAACUGGCUGAGACCGUUUAUUCGGGAUCCGCGGAACCUGAUCAGGCUAAUACCUGCGAAGGGAACAAGAGUUAAUCUGCUAUCGCAUCGCCCCUGCGGCGAUCGUCUCUUGCUUCAUCCGU; test: RNase H cleavage of free transcript; conditions: 20 mM MgCl2, 20 mM NaCl (transcription); 20 mM MgCl2, 100 mM KCl (RNase H step); Tris-HCl pH 8.0, 37 °C; 10 μM TPP; cleavage ratio higher than 158 nt transcript
[5] = tested on: EC-100 (thiC 1-100 nascent transcript) (RNA, riboswitch) UAAUUUCUUGUCGGAGUGCCUUAACUGGCUGAGACCGUUUAUUCGGGAUCCGCGGAACCUGAUCAGGCUAAUACCUGCGAAGGGAACAAGAGUUAAUCUG; test: RNase H cleavage of stalled elongation complex, P1 probe; conditions: 20 mM MgCl2, 20 mM NaCl (transcription); 20 mM MgCl2, 100 mM KCl (RNase H step); Tris-HCl pH 8.0, 37 °C; 10 μM TPP; cleavage ratio 1.3; RNAP bound
[6] = tested on: 158 nt thiC transcript (without RNAP) (RNA, riboswitch) UAAUUUCUUGUCGGAGUGCCUUAACUGGCUGAGACCGUUUAUUCGGGAUCCGCGGAACCUGAUCAGGCUAAUACCUGCGAAGGGAACAAGAGUUAAUCUGCUAUCGCAUCGCCCCUGCGGCGAUCGUCUCUUGCUUCAUCCGUCGUCUGACAAGCCAC; test: RNase H cleavage of free transcript; conditions: 20 mM MgCl2, 20 mM NaCl (transcription); 20 mM MgCl2, 100 mM KCl (RNase H step); Tris-HCl pH 8.0, 37 °C; 10 μM TPP; cleavage ratio 3.4; less efficient than EC-158

Compound: Cc1ncc(C[n+]2csc(CCOP(=O)(O)OP(=O)(O)O)c2C)c(N)n1
- binding [1]: yes
- binding [2]: yes
- binding [3]: yes
- binding [4]: yes
- binding [5]: weak
- binding [6]: yes
